# Measurements: patent US5179089A, “Isoquinoline compounds, compositions and use” (Chinoin Gyogyszer es Vegyeszeti Termekek Gyara Rt., priority 1990, dated 1993)
# Structures can show the parent of a compound that is named as a salt. Where two headings read alike, the source gives them in different places.
# Experiments:
# [1] = system: active local anaphylactic reaction; experiment: Effect influencing the active local anaphylactic reaction on rat; type: in vivo, rat (female OFA); conditions: for Percentage of inhibition of the active local anaphylactic reaction: oral dose of 50 mg/kg, 30th minute after induction
# Experimental: 1) The effect influencing the active local anaphylactic reaction was measured according to the method of M. Koltay [Arch. Allergy App. Immun. 71, 181 (1983)].
# Female OFA rats weighing 160 to 180 g each were sensitized by bovine serum albumin (BSA) adsorbed to 50 μg of Al(OH)3 gel together with the simultaneous administration of Bordatella pertussis vaccine.
# The anaphylactic reaction was elicited by injecting 100 μg of BSA into the right hind paw plant in the 14th day.
# The measurements were carried out before and 30 minutes after eliciting the reaction. The animals were orally treated with the compound to be tested 1 hour before the injection of BSA. The results were expressed as percentage inhibition compared to the control group (average %±S.E.M.).
# [2] = system: dextran-induced rat paw edema; experiment: Dextran-induced rat paw edema test; type: in vivo; conditions: for Percentage of inhibition: 50 mg/kg (p.o.)
# Experimental: 3) Dextran-induced rat paw edema test The method of S. Gourvaisier and R. Ducrot [Arch. Int. Pharmacodyn. Ther. 102, 33 (1955)] was employed. The method described for the carrageenin edema test was followed, except that the measurements were carried out 30, 60, 90, 120 and 180 minutes after induction of the inflammation.
# [3] = system: histamine-induced constriction of isolated tracheal smooth muscle of guinea pig; experiment: Inhibition of the histamine-induced constriction of isolated tracheal smooth muscle of guinea pig; conditions: Cavia porcellus, 0.25 h, isolated guinea pig trachea, read-out: Inhibition of the histamine-induced constriction of isolated tracheal smooth muscle of guinea pig pd'2 (converted)
# Experimental: I Study on the Effects Against Spasmogenic Mediators [modified method of J. C. […] The investigation on isolated organs were carried out as follows. OHF Lt/R9 guinea pigs of both sexes weighing 300 to 400 g each were anaesthetized by pentobarbital. Their trachea was removed and sectioned in the opposite side to the site of smooth muscle in longitudinal direction. Subsequently, a strip-like preparation was obtained by […] cutting. […] A rest load of 0.5 g was used. Several washings were carried out during the incubation period of 30 minutes. The change in the tension of the tracheal smooth muscle was followed by using an isometric Grass FT-03 type tensiometer sensor device. A washing was made following the cumulative dose series of the given mediator (e.g. histamine). After reaching the base line, by 15 minutes after administration of the given concentration of the inhibitory (antiasthmatic) substance to be tested, the next cumulative dose series of the mediator was administered. In the case of an inhibitory action, the strength of effect, following the second dose series of the mediator, was […] in comparison to that of the first (control) series. For characterization of strength of the competitive antagonistic effect the pA2 value was determined according to the method of […] A pd'2 value was calculated [J. M. Van Rossum: Arch. Int.
# [4] = system: serotonin-induced constriction of the isolated tracheal smooth muscle of the guinea pig; experiment: Inhibition of the serotonin-induced constriction of isolated tracheal smooth muscle of guinea pig; conditions: isolated guinea pig trachea; for pd'2 value against serotonin: 15 min
# Experimental: (§1) I Study on the Effects Against Spasmogenic Mediators
# [modified method of J. C.
# (§2) The investigation on isolated organs were carried out as follows.
# (§3) OHF Lt/R9 guinea pigs of both sexes weighing 300 to 400 g each were anaesthetized by pentobarbital. Their trachea was removed and sectioned in the opposite side to the site of smooth muscle in longitudinal direction. Subsequently, a strip-like preparation was obtained by serrately cutting.
# (§4) A rest load of 0.5 g was used. Several washings were carried out during the incubation period of 30 minutes.
# (§5) The change in the tension of the tracheal smooth muscle was followed by using an isometric Grass FT-03 type tensiometer sensor device. A washing was made following the cumulative dose series of the given mediator (e.g. histamine). After reaching the base line, by 15 minutes after administration of the given concentration of the inhibitory (antiasthmatic) substance to be tested, the next cumulative dose series of the mediator was administered. In the case of an inhibitory action, the strength of effect, following the second dose series of the mediator, was […] in comparison to that of the first (control) series.
# A pd'2 value was calculated [J. M. Van Rossum: Arch. Int. […] The higher the pA2 or pd'2 value, respectively were, the higher was the antagonistic effect.
# [5] = system: acetylcholine-induced constriction of the isolated tracheal smooth muscle of the guinea pig; experiment: Inhibition of the acetylcholine-induced constriction of isolated tracheal smooth muscle of guinea pig; conditions: Cavia porcellus, 0.25 h, isolated guinea pig trachea, read-out: pd'2 value against acetylcholine (converted)
# Experimental: as §1
# [modified method of J. C. Castillo et al.: Exp. Ther. 90, 104 (1947)]
# as §2, §3
# The organ was suspended in an organ bath containing 35 ml of Krebs solution at 37° C. bubbled through by carbogen gas (consisting of 95% of oxygen and 5% of carbon dioxide).
# as §4, §5
# For characterization of strength of the competitive antagonistic effect the pA2 value was determined according to the method of Schield [Br. J. Pharmacol. 4, 277 (1949)]. A pd'2 value was calculated [J. M. Van Rossum: Arch. Int. Pharmacodyn 143, 317 (1963)] to characterize the noncompatitive antagonistic effectivity. The higher the pA2 or pd'2 value, respectively were, the higher was the antagonistic effect.
# [6] = system: carrageenin-induced rat paw edema; experiment: Carrageenin-induced rat paw edema test; type: in vivo, rat (female CFY); conditions: for change in vivo at 50 mg/kg: Rattus norvegicus, po, 50 mg/kg (p.o.), read-out: Percentage of the protective effect; for Protective effect %: oral dose 20 mg/kg (Naproxen)
# Experimental: Proc. Soc. Exp. Med. 111, 544 (1962)]. Female CFY rats weighing 100 to 120 g each were used after starvation for 24 hours. The inflammation was induced by injecting 0.1 ml of 1% carrageenin solution into the right hind paw plant. The severity of inflammation was determined by using an Ugo-Basile type plethysmometer. The measurement was carried out before and 1.5, 3 and 4.5 hours after induction of the inflammation. The animals were orally treated with the substance to be tested 1 hour before administration of carrageenin. The effect was expressed as percentage inhibition related to the control group.
smiles,measurement,setting,value
"C[C@@H]1C[C@H]2[C@@H]3CCC4=CC(=O)C=C[C@]4(C)[C@@]3(F)[C@@H](O)C[C@]2(C)[C@@]1(O)C(=O)CO [Dexamethasone, dexamethasone, reference compound]",Protective effect % in the 30th minute,[1]; oral dose 0.5 mg/kg (Dexamethasone),45.5%
same,Protective effect %,"[2]; oral dose 0.5 mg/kg (dexamethasone), 30 minutes",42.7%
same,Protective effect %,"[2]; oral dose 0.5 mg/kg (dexamethasone), 60 minutes",36.8%
same,Protective effect %,"[2]; oral dose 0.5 mg/kg (dexamethasone), 90 minutes",51.1%
same,Protective effect %,"[2]; oral dose 0.5 mg/kg (dexamethasone), 120 minutes",52.1%
same,Protective effect %,"[2]; oral dose 0.5 mg/kg (dexamethasone), 180 minutes",45.5%
"NC1=NN(c2cccc(C(F)(F)F)c2)CC1 [BW 755C, reference compound]",Protective effect % in the 30th minute,[1]; oral dose 50 mg/kg (BW 755C),52.9%
same,Protective effect %,"[2]; oral dose 50 mg/kg (BW-755C), 30 minutes",15.4%
same,Protective effect %,"[2]; oral dose 50 mg/kg (BW-755C), 60 minutes",12.3%
same,Protective effect %,"[2]; oral dose 50 mg/kg (BW-755C), 90 minutes",17.2%
same,Protective effect %,"[2]; oral dose 50 mg/kg (BW-755C), 120 minutes",7.9%
same,Protective effect %,"[2]; oral dose 50 mg/kg (BW-755C), 180 minutes",11.3%
"CCOc1cc2c(cc1OCC)C(=C(C#N)SCC(CN1CCOCC1)OC(C)=O)NCC2 (centres unmarked) [Example 24, 2-(6,7-diethoxy-1,2,3,4-tetrahydro-1-isoquinolinylidene)-2-[2-acetoxy-3-(4-morpholinyl)propyl]mercaptoacetonitrile]",IC50,[3],1.17 µM
same,IC50,"[4]; Cavia porcellus, 0.25 h, read-out: pd'2 value against serotonin (converted)",8.91 µM
same,IC50,[5],9.55 µM
same,change in vivo at 50 mg/kg,[6]; 1.5 hours,-25.8%
same,change in vivo at 50 mg/kg,[6]; 3 hours,-20.3%
same,change in vivo at 50 mg/kg,[6]; 4.5 hours,-20%
"CCOc1cc2c(cc1OCC)C(=C(C#N)SCC(CN1CCOCC1)OC(=O)c1ccccc1)NCC2 (centres unmarked) [Example 26, 2-(6,7-diethoxy-1,2,3,4-tetrahydro-1-isoquinolinylidene)-2-[2-benzoyloxy-3-(4-morpholinyl)-propyl]mercaptoacetonitrile hydrochloride]",IC50,[3],8.71 µM
same,IC50,[5],15.5 µM
"COc1ccc2cc([C@H](C)C(=O)O)ccc2c1 [Naproxen, reference compound]",Protective effect % in the 30th minute,[1]; oral dose 30 mg/kg (Naproxen),2.2%
same,Protective effect %,[6]; 1.5 hours,33.2%
same,Protective effect %,[6]; 3 hours,44.3%
same,Protective effect %,[6]; 4.5 hours,40.4%
same,Protective effect %,"[2]; oral dose 20 mg/kg (Naproxen), 30 minutes",16.9%
same,Protective effect %,"[2]; oral dose 20 mg/kg (Naproxen), 60 minutes",20.1%
same,Protective effect %,"[2]; oral dose 20 mg/kg (Naproxen), 90 minutes",18.9%
same,Protective effect %,"[2]; oral dose 20 mg/kg (Naproxen), 120 minutes",23.3%
same,Protective effect %,"[2]; oral dose 20 mg/kg (Naproxen), 180 minutes",21.6%
"Cn1c(=O)c2[nH]cnc2n(C)c1=O [theophylline, reference compound]",IC50,[3],1.58 µM
same,pd'2 value against serotonin,[4],6.16
same,pd'2 value against serotonin,[4]; listed as Theophylline,6.49
same,IC50,[5],0.372 µM
"COc1cc2c(cc1OC)C(=C(C#N)SCC(O)CN1CCOCC1)NCC2 (centres unmarked) [Example 17, 2-(6,7-dimethoxy-1,2,3,4-tetrahydro-1-isoquinolinylidene)-2-[2-hydroxy-3-(4-morpholinyl)propyl]mercaptoacetonitrile hydrochloride]",IC50,[3],1.82 µM
same,Percentage of inhibition of the active local anaphylactic reaction,[1],-53.4%
same,change in vivo at 50 mg/kg,[6]; 1.5 hours,-4.2%
same,change in vivo at 50 mg/kg,[6]; 3 hours,0%
same,change in vivo at 50 mg/kg,[6]; 4.5 hours,0%
same,Percentage of inhibition,[2]; 30 minutes,27.5%
same,Percentage of inhibition,[2]; 60 minutes,32.5%
same,Percentage of inhibition,[2]; 90 minutes,32.1%
same,Percentage of inhibition,[2]; 120 minutes,32.4%
same,Percentage of inhibition,[2]; 180 minutes,20.3%
"COc1cc2c(cc1OC)C(=C(C#N)SCC(O)CN1CCCC1)NCC2 (centres unmarked) [Example 12, 2-(6,7-dimethoxy-1,2,3,4-tetrahydro-1-isoquinolinylidene)-2-[2-hydroxy-3-(1-pyrrolidinyl)propyl]mercaptoacetonitrile hydrochloride hemihydrate]",IC50,[3],15.5 µM
same,change in vivo at 50 mg/kg,[6]; 1.5 hours,-27.2%
same,change in vivo at 50 mg/kg,[6]; 3 hours,-18.9%
same,change in vivo at 50 mg/kg,[6]; 4.5 hours,-17.6%
same,Percentage of inhibition,[2]; 30 minutes,-20.2%
same,Percentage of inhibition,[2]; 60 minutes,-15.6%
same,Percentage of inhibition,[2]; 90 minutes,-14.7%
same,Percentage of inhibition,[2]; 120 minutes,-14.6%
same,Percentage of inhibition,[2]; 180 minutes,-12.6%
"COc1cc2c(cc1OC)C(=C(C#N)SCC(CN1CCOCC1)OC(=O)c1ccccc1)NCC2 (centres unmarked) [Example 25, 2-(6,7-dimethoxy-1,2,3,4-tetrahydro-1-isoquinolinylidene)-2-[2-benzoyloxy-3-(4-morpholinyl)propyl]mercaptoacetonitrile]",IC50,[3],0.417 µM
same,IC50,[5],15.5 µM
same,change in vivo at 50 mg/kg,[6]; 1.5 hours,-26.6%
same,change in vivo at 50 mg/kg,[6]; 3 hours,-17.7%
same,change in vivo at 50 mg/kg,[6]; 4.5 hours,-16%
"N#CC(SCC(O)CN1CCCCC1)=C1NCCc2ccccc21 (centres unmarked) [Example 14, 2-(1,2,3,4-tetrahydro-1-isoquinolinylidene)-2-[2-hydroxy-3-(1-piperidinyl)propyl]mercaptoacetonitrile]",IC50,[3],26.3 µM
same,Percentage of inhibition of the active local anaphylactic reaction,[1],-44.1%
same,change in vivo at 50 mg/kg,[6]; 1.5 hours,-20.9%
same,change in vivo at 50 mg/kg,[6]; 3 hours,-20%
same,change in vivo at 50 mg/kg,[6]; 4.5 hours,-20%
